Test results reported in patent US20230037448A1, “FLUORINATED QUINOLINE AND QUINOXALINE DERIVATIVES AS DIHYDROOROTATE DEHYDROGENASE (DHODH) INHIBITORS FOR THE TREATMENT OF CANCER, AUTOIMMUNE AND INFLAMMATORY DISEASES” (Janssen Biotech, Inc., priority 2019, published 2023).

How the values were obtained:
human DHODH = target: T1, human DHODH (Homo sapiens, UniProt Q02127); experiment: DHODH Enzymatic Assay; format: biochemical; conditions: purified human DHODH; DCIP absorbance, end-point mode
T1 construct: purchased Proteros PR-0044
Protocol: To detect DHODH enzyme activities, dichloroindophenol (DCIP) is added as the final electron acceptor in the assay. DCIP can accept electrons from the reduced coenzyme Q generated in the assay, or from dihydroorotate (DHO) via FMN by binding presumably to the ubiquinone pocket. DCIP solutions are blue, with an intense absorbance around 600 nm, but becomes colorless upon reduction (J. Biol. Chem. (1986) 261, 11386). The assay buffer contained […], pH 7.5, 150 mM NaCl, 0.5 mM EDTA, and 0.1% Triton X-100 in MilliQ water. Substrate consisting of 20 mM DHO, 5 mM CoQ6, and 1 mM DCIP in assay buffer, initiates the reaction. The assay is run in end-point mode by quenching the reaction with the potent DHODH inhibitor brequinar. Absorbance measurements were obtained using the BMG Phera Star plate-reading spectrophotomer. Purified human DHODH was purchased from Proteros (cat. No. PR-0044). Chemicals were purchased from Sigma-Aldrich, Teknova, and Avanti Polar Lipids. Liquid handling was performed using Labcyte Echo and Formulatrix Tempest.

MOLM-13 cells = experiment: MOLM-13 Cellular Assay; format: cell-based; conditions: Homo sapiens, MOLM-13, 72 h, 72 hours exposure, cell viability by CellTiter-Glo
Protocol: MOLM-13 cells were obtained from DSMZ and were maintained in RPMI 1640+Glutamax+25 mM HEPES (Invitrogen, catalog number 72400) supplemented with 10% heat inactivated fetal bovine serum (FBS; Invitrogen, catalog number 16140). The day prior to assay set-up, cells were pelleted, resuspended in fresh media, counted, and cells were plated at 0.4×10^6 cell/mL in a T150 flask. On the day of the assay, cells were pelleted, resuspend in fresh media, counted, and seeded at 5,000 cells/well in white opaque 96-well tissue culture treated microplates (Perkin Elmer, catalog number 6005680). Cells were exposed to different concentrations of test compounds at 37° C., 5% CO2 for 72 hours immediately after seeding. Cell viability was acquired on a Perkin Elmer Envision 2104 multilabel reader using the CellTiter-Glo assay (Promega) according to the manufacturer's instructions.

T1 sequence (Q02127 whole entry): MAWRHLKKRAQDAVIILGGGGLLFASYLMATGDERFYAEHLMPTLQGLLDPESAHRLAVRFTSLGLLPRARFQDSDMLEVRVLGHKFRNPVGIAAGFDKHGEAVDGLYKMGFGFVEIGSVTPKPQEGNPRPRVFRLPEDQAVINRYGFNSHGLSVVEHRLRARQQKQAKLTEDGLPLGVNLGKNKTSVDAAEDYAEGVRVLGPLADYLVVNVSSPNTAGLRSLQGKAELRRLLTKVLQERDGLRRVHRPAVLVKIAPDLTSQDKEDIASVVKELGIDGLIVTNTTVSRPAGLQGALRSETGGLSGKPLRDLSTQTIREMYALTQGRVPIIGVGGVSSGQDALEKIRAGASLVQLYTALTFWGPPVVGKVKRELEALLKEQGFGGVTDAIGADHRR

Row | Structure (SMILES) | IC50 (human DHODH) [nM] | IC50 (MOLM-13 cells) [nM]
1 | CCn1c(CO)nn(-c2cc3c(C(C)C)nc(-c4ccccc4C)nc3cc2F)c1=O [Example 10, 4-Ethyl-2-(7-fluoro-4-isopropyl-2-(o-tolyl)quinazolin-6-yl)-5-(hydroxymethyl)-2,4-dihydro-3H-1,2,4-triazol-3-one] | 1.9 | 2.2
2 | Cc1n[nH]c(C(F)(F)F)c1-c1cc(C(C)C)c2cc(-c3nc(CO)n(C)n3)c(F)cc2n1 [Example 28, (3-(7-Fluoro-4-isopropyl-2-(3-methyl-5-(trifluoromethyl)-pH-pyrazol-4-yl)quinolin-6-yl)-1-methyl-1H-1,2,4-triazol-5-yl)methanol] | 3 | 2
3 | Cc1n[nH]c(C(F)(F)F)c1-c1cc(C(C)C)c2cc(-c3nc(C(C)O)n(C)n3)c(F)cc2n1 (stereo not drawn) [Example 29, 1-(3-(7-Fluoro-4-isopropyl-2-(3-methyl-5-(trifluoromethyl)-1H-pyrazol-4-yl)quinolin-6-yl)-1-methyl-1H-1,2,4-triazol-5-yl)ethan-1-ol] | 1 | 0.36
4 | CCn1c(CO)nn(-c2cc3c(C(C)C)cc(-c4cc(O)ncc4C)nc3cc2F)c1=O [Example 24, 4-Ethyl-1-(7-fluoro-2-(2-hydroxy-5-methylpyridin-4-yl)-4-isopropylquinolin-6-yl)-3-(hydroxymethyl)-1H-1,2,4-triazol-5 (4H)-one] | 33 | > 100
5 | CCn1c(CO)nn(-c2cc3c(C(C)C)cc(N4CCCCC4)nc3cc2F)c1=O [Example 14, 4-Ethyl-1-(7-fluoro-4-isopropyl-2-(piperidin-1-yl)quinolin-6-yl)-3-(hydroxymethyl)-1H-1,2,4-triazol-5 (4H)-one] | 120 | 100
6 | CCn1c(CO)nn(-c2cc3c(C(C)C)cc(-c4c(C)ccnc4Cl)nc3cc2F)c1=O [Example 35, 1-(2-(2-Chloro-4-methylpyridin-3-yl)-7-fluoro-4-isopropylquinolin-6-yl)-4-ethyl-3-(hydroxymethyl)-1H-1,2,4-triazol-5 (4H)-one] | 4.7 | 4
